This note sets out measurements from patent US12338256B2, “Aza-tetracyclic oxazepine compounds and uses thereof” (Genentech, Inc., priority 2022, dated 2025).

Assay [1] relates to H1975 (KRAS wild type human lung adenocarcinoma cell line). Briefly: KRAS 3D-Cell Proliferation Assay, H1975 (Example 503). Format: cell-based. The following applies: Homo sapiens, NCI-H1975, 168 h, H1975 3D culture, 7 days, CellTiter-Glo 3D; read-out: Prolif H1975 3D ATP IC50. The essentials:
(§1)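 IC50s come from a 4-parameter Hill fit of luminescence (CellTiter-Glo 3D) normalized between DMSO (0%) and 1 μM staurosporine (100%). Cells in low-attachment 3D culture, RPMI-1640 with 10% FBS, received serial compound dilutions (0.3% DMSO) after overnight and were incubated 7 days at 37 °C.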

Assay [2] deals with HPAC (homozygous mutant KRAS G12D human pancreatic cell line). The assay is described as follows: KRAS 3D-Cell Proliferation Assay, HPAC (Example 503). The assay is classed as cell-based. To be noted: Homo sapiens, HPAC, 168 h, HPAC 3D culture, 7 days, CellTiter-Glo 3D; read-out: Prolif HPAC 3D ATP IC50. The essentials: as §1
Background: In ATP-based viability assays light output follows the ATP content of the culture.

For the compound `Cc1nc(N)c(F)c(-c2nc3c4c(nc(OCC5(CN6C[C@H]7C[C@@H]6CO7)CC5)nc4c2F)N2C[C@H]4CC[C@H](N4)[C@H]2[C@H](C)O3)c1C(F)(F)F` [Compound 223, 4-((5S,5aS,6S,9R)-12-((1-(((1R,4R)-2-Oxa-5-azabicyclo[2.2.1]heptan-5-yl)methyl)cyclopropyl)methoxy)-1-fluoro-5-methyl-5a,6,7,8,9,10-hexahydro-5H-4-oxa-3,10a,11,13,14-pentaaza-6,9-methanonaphtho[1,8-ab]heptalene-2-yl)-3-fluoro-6-methyl-5-(trifluoromethyl)pyridin-2-amine], the IC50 (usually the concentration at which inhibition is half-maximal) in assay [1] was 1230 nM; in assay [2], 6.46 nM.

As to `Cc1nc(N)c(Cl)c(-c2nc3c4c(nc(OC[C@@]56CCCN5C[C@H](F)C6)nc4c2F)N2C[C@H]4CC[C@H](N4)[C@H]2[C@H](C)O3)c1C(F)(F)F` [Compound 197, 3-Chloro-4-((5S,5aS,6S,9R)-1-fluoro-12-(((2R,7aS)-2-fluorotetrahydro-1H-pyrrolizin-7a(5H)-yl)methoxy)-5-methyl-5a,6,7,8,9,10-hexahydro-5H-4-oxa-3,10a,11,13,14-pentaaza-6,9-methanonaphtho[1,8-ab]heptalen-2-yl)-6-methyl-5-(trifluoromethyl)pyridin-2-amine], the 50% inhibitory concentration (IC50) is 468 nM in assay [1] and 9.79 nM in assay [2].

As for `Cc1cc(N)c(F)c(-c2nc3c4c(nc(OC[C@@H]5CC[C@H]6COCCN65)nc4c2F)N2C[C@H]4CC[C@H](N4)[C@H]2[C@H](C)O3)c1C1CC1` [Compound 98, 4-Cyclopropyl-2-fluoro-3-((5S,5aS,6S,9R)-1-fluoro-12-(((6S,8aS)-hexahydro-1H-pyrrolo[2,1-c][1,4]oxazin-6-yl)methoxy)-5-methyl-5a,6,7,8,9,10-hexahydro-5H-4-oxa-3,10a,11,13,14-pentaaza-6,9-methanonaphtho[1,8-ab]heptalen-2-yl)-5-methylaniline], the IC50 in assay [1] turned out to be 2750 nM; in assay [2] it was 26.2 nM.

As for `C[C@@H]1Oc2nc(-c3cc(O)cc4ccc(F)c(F)c34)c(F)c3nc(OC[C@@]45CCCN4C[C@H](F)C5)nc(c23)N2C[C@H]3CC[C@H](N3)[C@@H]12` [Compound 82, 5,6-Difluoro-4-((5S,5aS,6S,9R)-1-fluoro-12-(((2R,7aS)-2-fluorotetrahydro-1H-pyrrolizin-7a(5H)-yl)methoxy)-5-methyl-5a,6,7,8,9,10-hexahydro-5H-4-oxa-3,10a,11,13,14-pentaaza-6,9-methanonaphtho[1,8-ab]heptalen-2-yl)naphthalen-2-ol], the IC50 in assay [1] and in assay [2] was 20000 nM each time.

`Cc1cc(N)cc(-c2nc3c4c(nc(OC[C@@H]5CC[C@H]6COCCN65)nc4c2F)N2C[C@H]4CC[C@H](N4)[C@H]2[C@H](C)O3)c1CC(F)F` [Compound 230, 4-(2,2-Difluoroethyl)-3-((5S,5aS,6S,9R)-1-fluoro-12-(((6S,8aS)-hexahydro-1H-pyrrolo[2,1-c][1,4]oxazin-6-yl)methoxy)-5-methyl-5a,6,7,8,9,10-hexahydro-5H-4-oxa-3,10a,11,13,14-pentaaza-6,9-methanonaphtho[1,8-ab]heptalen-2-yl)-5-methylaniline]: the IC50 stood at 5840 nM in assay [1] and 28.4 nM in assay [2].

For `Cc1cc(N)cc(-c2nc3c4c(nc(OC[C@@]56CCCN5CC5(CC5(F)F)C6)nc4c2F)N2C[C@H]4CC[C@H](N4)[C@H]2[C@H](C)O3)c1C(F)(F)F` (stereo partly drawn) [Compound 68, 3-((5S,5aS,6S,9R)-12-(((7a′S)-2,2-Difluorodihydro-1′H,3′H-spiro[cyclopropane-1,2′-pyrrolizin]-7a′(5′H)-yl)methoxy)-1-fluoro-5-methyl-5a,6,7,8,9,10-hexahydro-5H-4-oxa-3,10a,11,13,14-pentaaza[6,9]methanonaphtho[1,8-ab]heptalen-2-yl)-5-methyl-4-(trifluoromethyl)aniline], the half-maximal inhibitory concentration (IC50) in assay [1] is 146 nM; in assay [2], 0.205 nM.

For the compound `Cc1nc(N)c(F)c(-c2nc3c4c(nc(OCC56CCN5CC(F)(F)C6)nc4c2F)N2C[C@H]4CC[C@H](N4)[C@H]2[C@H](C)O3)c1C(F)(F)F` (stereo partly drawn) [Compound 220, 4-((5S,5aS,6S,9R)-12-((3,3-Difluoro-1-azabicyclo[3.2.0]heptan-5-yl)methoxy)-1-fluoro-5-methyl-5a,6,7,8,9,10-hexahydro-5H-4-oxa-3,10a,11,13,14-pentaaza-6,9-methanonaphtho[1,8-ab]heptalene-2-yl)-3-fluoro-6-methyl-5-(trifluoromethyl)pyridin-2-amine], the 50% inhibitory concentration (IC50) in assay [1] turned out to be 20000 nM; in assay [2], 11.8 nM.

With `Cc1nc(N)cc(-c2nc3c4c(nc(OCC56CCN5CC(F)(F)C6)nc4c2F)N2C[C@H]4CC[C@H](N4)[C@H]2[C@H](C(F)(F)F)O3)c1C(F)(F)F` (single isomer, unassigned) [252 (isomer 2)], the concentration for half-maximal inhibition (IC50) was 20000 nM in assay [1] and 119 nM in assay [2].

Regarding `Cc1c(F)c(N)cc(-c2nc3c4c(nc(OCC5CCC6CC(F)CN56)nc4c2F)N2CC4CCC(N4)C2C(C)O3)c1C(F)(F)F` (single isomer, unassigned) [152 (isomer 2)], the half-inhibitory concentration (IC50) in assay [1] was 6330 nM; in assay [2], 299 nM.

Turning to `Cc1c(F)c(N)cc(-c2nc3c4c(nc(OCCC5(N6CCOCC6)COC5)nc4c2F)N2C[C@H]4CC[C@H](N4)[C@H]2[C@H](C)O3)c1C(F)(F)F` [Compound 149, 2-Fluoro-5-((5S,5aS,6S,9R)-1-fluoro-5-methyl-12-(2-(3-morpholinooxetan-3-yl)ethoxy)-5a,6,7,8,9,10-hexahydro-5H-4-oxa-3,10a,11,13,14-pentaaza-6,9-methanonaphtho[1,8-ab]heptalen-2-yl)-3-methyl-4-(trifluoromethyl)aniline], the IC50 came out at 20000 nM in assay [1] and 186 nM in assay [2].

With `Cc1nc(N)cc(-c2nc3c4c(nc(OCC5(CN6C[C@H]7C[C@@H]6CO7)CC5)nc4c2F)N2C[C@H]4CC[C@H](N4)[C@H]2[C@H](C)O3)c1C(F)(F)F` [Compound 209, 4-((5S,5aS,6S,9R)-12-((1-(((1R,4R)-2-Oxa-5-azabicyclo[2.2.1]heptan-5-yl)methyl)cyclopropyl)methoxy)-1-fluoro-5-methyl-5a,6,7,8,9,10-hexahydro-5H-4-oxa-3,10a,11,13,14-pentaaza-6,9-methanonaphtho[1,8-ab]heptalene-2-yl)-6-methyl-5-(trifluoromethyl)pyridin-2-amine], the 50% inhibitory concentration (IC50) in assay [1] is 282 nM; in assay [2], 3.47 nM.

For the compound `Cc1nc(N)cc(-c2nc3c4c(nc(OCC5(CN6CC(C)(F)C6)CC5)nc4c2F)N2C[C@H]4CC[C@H](N4)[C@H]2[C@H](C)O3)c1C(F)(F)F` [Compound 289, 4-((5S,5aS,6S,9R)-1-fluoro-12-((1-((3-fluoro-3-methylazetidin-1-yl)methyl)cyclopropyl)methoxy)-5-methyl-5a,6,7,8,9,10-hexahydro-5H-4-oxa-3,10a,11,13,14-pentaaza-6,9-methanonaphtho[1,8-ab]heptalene-2-yl)-6-methyl-5-(trifluoromethyl)pyridin-2-amine], the results for the half-maximal inhibitory concentration (IC50) in assay [1] and in assay [2] were 573 nM and 3.15 nM, respectively.

For `C[C@@H]1Oc2nc(-c3cc(N)cc4c3CCC4)c(F)c3nc(OC[C@@]45CCCN4C[C@H](F)C5)nc(c23)N2C[C@H]3CC[C@H](N3)[C@@H]12` [Compound 83, 7-((5S,5aS,6S,9R)-1-Fluoro-12-(((2R,7aS)-2-fluorotetrahydro-1H-pyrrolizin-7a(5H)-yl)methoxy)-5-methyl-5a,6,7,8,9,10-hexahydro-5H-4-oxa-3,10a,11,13,14-pentaaza-6,9-methanonaphtho[1,8-ab]heptalen-2-yl)-2,3-dihydro-1H-inden-5-amine], the IC50 came out at 2230 nM in assay [1] and 23.7 nM in assay [2].

With `CO[C@@H]1CN(CC2(COc3nc4c5c(nc(-c6cc(N)nc(C)c6C(F)(F)F)c(F)c5n3)O[C@@H](C)[C@@H]3[C@@H]5CC[C@H](CN43)N5)CC2)C[C@@H]1F` [Compound 290, 4-((5S,5aS,6S,9R)-1-fluoro-12-((1-(((3S,4R)-3-fluoro-4-methoxypyrrolidin-1-yl)methyl)cyclopropyl)methoxy)-5-methyl-5a,6,7,8,9,10-hexahydro-5H-4-oxa-3,10a,11,13,14-pentaaza-6,9-methanonaphtho[1,8-ab]heptalen-2-yl)-6-methyl-5-(trifluoromethyl)pyridin-2-amine], the IC50 in assay [1] came out at 2780 nM; in assay [2] it was 2.53 nM.

Regarding `C[C@@H]1Oc2nc(-c3c(C#N)c(N)c(F)c(F)c3C(F)(F)F)c(F)c3nc(OC[C@@]45CCCN4C[C@H](F)C5)nc(c23)N2C[C@H]3CC[C@H](N3)[C@@H]12` [Compound 107, 2-Amino-3,4-difluoro-6-((5S,5aS,6S,9R)-1-fluoro-12-(((2R,7aS)-2-fluorotetrahydro-1H-pyrrolizin-7a(5H)-yl)methoxy)-5-methyl-5a,6,7,8,9,10-hexahydro-5H-4-oxa-3,10a,11,13,14-pentaaza-6,9-methanonaphtho[1,8-ab]heptalen-2-yl)-5-(trifluoromethyl)benzonitrile], the IC50 in assay [1] came out at 4870 nM; in assay [2], 43.5 nM.

Turning to `Cc1c(F)c(N)cc(-c2nc3c4c(nc(OCCCN5C[C@@H]6C[C@H]5CO6)nc4c2F)N2C[C@H]4CC[C@H](N4)[C@H]2[C@H](C)O3)c1C(F)(F)F` [Compound 164, 5-((5S,5aS,6S,9R)-12-(3-((1S,4S)-2-oxa-5-azabicyclo[2.2.1]heptan-5-yl)propoxy)-1-fluoro-5-methyl-5a,6,7,8,9,10-hexahydro-5H-4-oxa-3,10a,11,13,14-pentaaza-6,9-methanonaphtho[1,8-ab]heptalen-2-yl)-2-fluoro-3-methyl-4-(trifluoromethyl)aniline], the results for the IC50 in assay [1] and in assay [2] were 7110 nM and 43.8 nM, respectively.
